Measured values published in patent publication US20140348880A1, “Ortho-Aminothiophenol Compounds and Uses Thereof” (Cape Breton University, priority 2013, published 2014).

Experiments:
[1] = system: Staphylococcus aureus (#25923); assay: In vitro disc diffusion assay, ZOI (Example 3); type: cell-based; conditions: 6 mm diameter discs; for Zone of Inhibition: Staphylococcus aureus; for ZOI: S. aureus
Experimental: (§1) Sterile assay discs (6 mm diameter) were obtained from VWR Whatman and antibiotic assay discs (6 mm diameter) containing getamicin (10 μg/disc) and the combination drug sulfamethoxazole 23.75 μg/disc and trimethoprim 1.25 μg/disc were obtained from Becton, Dickinson and Company (USA). Dimethyl sulfoxide (DMSO) for microbial experiments was BioReagent™ grade and was purchased from Sigma-Aldrich. The nutrient broth and Müller-Hinton agar was purchased from Becton, Dickinson and Company (USA). Bacillus cereus, Pseudomonas aeruginosa (#27853), Klebsiella pneumonia (#13883), Proteus vulgaris (#13315), Staphylococcus aureus (#25923) and Escherichia coli (#25922) strains were obtained from the American Type Culture Collection (ATCC). All materials in contact with antimicrobial matter was treated for 40 min at 121° C. and 20 psi in a biohazard autoclave bag prior to waste disposing or washing. McFarland turbity standards containing barium sulfate were obtained from bioMérieux.
(§2) The growth medium was prepared by addition of Müller-Hinton agar (38 g) to 1 L distilled water under vigorous stirring and boiled for 10 min until complete dissolution. After cooling to 25° C., the pH value of the medium was 7.3±0.1. The medium was sterilized in an autoclave at 121° C. for 15 min at 20 psi, cooled to 45-50° C. and dispended into sterile Petri dishes on a leveled, horizontal surface to give uniform depth. Stock solutions of the microorganisms were incubated at 37° C. for 24 h and the turbidity of the microbial colonies were adjusted visually with sterile saline (0.85% w/v NaCl) to 0.5 McFarland standards. Within 15 min after adjusting the turbidity of the suspensions, the Petri dishes were inoculated using sterile cotton buds. The prepared antibiotic assay discs were placed on the surface of the seeded Müller-Hinton agar using flame sterilized forceps.
(§3) Stock solutions of compounds and the Cu complexed compounds were made in DMSO and were micropipetted onto the discs for 25 to 200 μg compound/disc. The discs were dried at ambient temperature for 30-50 min before placement onto the seeded Petri dishes which were then incubated at 37° C. for 24 h. Averaged inhibition zone measurements (mm) have an accuracy of ±0.5 mm; adjacent overlapping ZOI were determined using radii measurements.

[2] = system: Bacillus cereus; assay: In vitro disc diffusion assay, ZOI (Example 3); type: cell-based; conditions: 6 mm diameter discs; for Zone of Inhibition: Bacillus cereus; for ZOI: B. cereus
Experimental: as §1, §2, §3

[3] = DPPH antioxidant activity test; conditions: 50 μg compound in 3 mL methanol; DPPH 150 μL 1 mM; 30 min, 25 °C; absorbance 517 nm
Experimental: In addition to antibacterial properties, antioxidant activity was assessed in the compounds of Formula I and II and metal complexes thereof as antioxidant compounds play an important role in remediating the toxic effects of reactive oxygen species and other free radicals. The main characteristic of an antioxidant compound is its ability to trap free radicals. Highly reactive free radicals and oxygen species are present in biological systems from a wide variety of sources. Free radical damage is known to occur during bacterial and other microbial infections. Free radicals are produced by cells of the immune system during an active infection, and generally as a result of the inflammatory processes.
DPPH (2,2-diphenyl-1-picryl-hydrazyl, 150 μL, 1 mM solution in methanol) was added to 3 mL methanol in a cuvette (0.5 in diameter) and UV-vis absorption recorded at 517 nm for baseline reading. In a cuvette, DPPH (150 μL, 1 mM solution in methanol) was added to a solution containing compound in 3 mL methanol. The reaction was allowed to stir at 25±1° C. for 30 min under exclusion of light. Absorbance was recorded at 517 nm against reference cuvette filled with methanol.

Molecule | Zone of Inhibition ([1]; 6.25 μg Cu/disc) [mm] | Zone of Inhibition ([1]; 12.5 μg Cu/disc) [mm] | Zone of Inhibition ([1]; 25 μg Cu/disc) [mm] | Zone of Inhibition ([2]; 6.25 μg Cu/disc) [mm] | Zone of Inhibition ([2]; 12.5 μg Cu/disc) [mm] | Zone of Inhibition ([2]; 25 μg Cu/disc) [mm] | further results
2-(methylthio)-N-(2-phenylmethylene)-benzenamine copper (II) bromide [ECPP-167] | 4 | 5 | 9 | 0 | 1 | 2 | 
2-(methylthio)-N-(2-pyridylmethylene)-benzenamine copper (I) bromide [ECPP-141] | 0.5 | 2 | 5 | 0 | 0 | 2 | 
2-(methylthio)-N-(2-pyridylmethylene)-benzenamine copper (I) iodide [ECPP-143] | 0 | 0 | 1 |  |  |  | 
2-(methylthio)-N-(2-pyridylmethylene)-benzenamine copper (II) bromide [ECPP-145] | 0 | 1 | 4 | 0 | 0 | 0.5 | 
2-(methylthio)-N-(2-thienylmethylene)-benzenamine copper (II) bromide [ECPP-129] | 5 | 7 | 10 | 0 | 0.5 | 9 | 
Nc1ccccc1SCc1ccc(CSc2ccccc2N)cc1 [Compound L1] |  |  |  |  |  |  | ZOI ([1]; 50 μg/disc): 2.5 mm; ZOI ([1]; 100 μg/disc): 3.5 mm; ZOI ([1]; 200 μg/disc): 5.5 mm; ZOI ([2]; 50 μg/disc): 1.5 mm; ZOI ([2]; 100 μg/disc): 5 mm; ZOI ([2]; 200 μg/disc): 6.3 mm
Nc1ccccc1SCc1ccccc1CSc1ccccc1N [Compound L2] |  |  |  |  |  |  | ZOI ([1]; 200 μg/disc): 1.5 mm; ZOI ([2]; 200 μg/disc): 2 mm
C(=N\c1ccccc1SCc1ccccc1)/c1ccccn1 [Compound L3] |  |  |  |  |  |  | ZOI ([1]; 50 μg/disc): 0 mm; ZOI ([1]; 75 μg/disc): 2.5 mm; ZOI ([2]; 50 μg/disc): 0 mm; ZOI ([2]; 75 μg/disc): 0.5 mm
C(=N\c1ccccc1SCc1ccccc1CSc1ccccc1/N=C/c1ccccn1)/c1ccccn1 [Compound L4] |  |  |  |  |  |  | ZOI ([1]; 200 μg/disc): 0.5 mm; ZOI ([2]; 200 μg/disc): 0.5 mm
CC(=O)[O-].CC(=O)[O-].Nc1ccccc1SCc1ccccc1CSc1ccccc1N.[Cu+2] [α,α′-bis((o-aminophenyl)thio)-ortho-xylene-copper (II) acetate] |  |  |  |  |  |  | % Antiox-Act [3]: 63.5%
Nc1ccccc1SCc1ccccc1CSc1ccccc1N.[Cl][Cu][Cl] [α,α′-bis((o-aminophenyl)thio)-ortho-xylene-copper (II) chloride] |  |  |  |  |  |  | % Antiox-Act [3]: 56.1%
